From patent publication US20100029697A1, “SUBSTITUTED PYRIDO[3,2-E][1,2,4]TRIAZOLO[4,3-C]PYRIMIDINE DERIVATIVES AS CANNABINOID-1 RECEPTOR MODULATORS” (priority 2007, published 2010) come the findings set out here.

The target in assay [1] is recombinant human CB1 receptor (Homo sapiens, UniProt P21554). Description: Cannabinoid Receptor-1 (CB1) Binding Assay ([3H]CP-55940 displacement). The following applies: recombinant human CB1 receptor in CHO cell membranes, 0.6 nM [3H]CP-55940. As to the method:
Binding affinity determination is based on recombinant human CB1 receptor expressed in Chinese Hamster Ovary (CHO) cells (Felder et al, Mol. Pharmacol. 48: 443-450, 1995). Total assay volume is 250 μl (240 μl CB1 receptor membrane solution plus 5 μl test compound solution plus 5 μl [3H]CP-55940 solution). Final concentration of [3H]CP-55940 is 0.6 nM. Binding buffer contains 50 mM Tris-HCl, pH7.4, 2.5 mM EDTA, 5 mM MgCl2, 0.5 mg/mL fatty acid free bovine serum albumin and protease inhibitors (Cat#P8340, from Sigma). To initiate the binding reaction, 5 μl of radioligand solution is added, the mixture is incubated with gentle shaking on a shaker for 1.5 h at 30° C. The binding is terminated by using 96-well harvester and filtering through GF/C filter presoaked in 0.05% polyethylenimine. The bound radiolabel is quantitated using scintillation counter. Apparent binding affinities for various compounds are calculated from IC50 values (DeBlasi et al., Trends Pharmacol Sci 10: 227-229, 1989).

Assay [2] addresses recombinant human CB1 receptor expressed in CHO cells (Homo sapiens, UniProt P21554). Nature of the assay: Cannabinoid Receptor-1 (CB1) Functional Activity Assay (intracellular cAMP, forskolin-stimulated CB1-CHO cells). In kind it is cell-based. To be noted: for EC50: cAMP level in CB1-CHO cells with forskolin; for functional mode at CB1 receptor in the CB1 functional activity assay: cAMP readout in CB1-CHO cells. As to the method:
The functional activation of CB1 receptor is based on recombinant human CB1 receptor expressed in CHO cells (Felder et al, Mol. Pharmacol. 48: 443-450, 1995). To determine the agonist activity or inverse agonist activity of any test compound, 50 ul of CB1-CHO cell suspension are mixed with test compound and 70 ul assay buffer containing 0.34 mM 3-isobutyl-1-methylxanthine and 5.1 uM of forskolin in 96-well plates. The assay buffer is comprised of Earle's Balanced Salt Solution supplemented with 5 mM MgCl2, 1 mM glutamine, 10 mM HEPES, and 1 mg/mL bovine serum albumin. The mixture is incubated at room temperature for 30 minutes, and terminated by adding 30 ul/well of 0.5M HCl. The total intracellular cAMP level is quantitated using the New England Nuclear Flashplate and cAMP radioimmunoassay kit.
To determine the antagonist activity of test compound, the reaction mixture also contains 0.5 nM of the agonist CP55940 (or 50 nM of methanandamide), and the reversal of the CP55940 (or methanandamide) effect is quantitated with increasing concentration of the test compound. Intracellular cAMP is determined as described above. An IC50 value for the test compound is calculated from the titration curve.
For orientation: Changes in cAMP serve as a functional read-out for many G protein-coupled receptors.

recombinant human CB1 receptor expressed in CHO cells, sequence (P21554 whole entry): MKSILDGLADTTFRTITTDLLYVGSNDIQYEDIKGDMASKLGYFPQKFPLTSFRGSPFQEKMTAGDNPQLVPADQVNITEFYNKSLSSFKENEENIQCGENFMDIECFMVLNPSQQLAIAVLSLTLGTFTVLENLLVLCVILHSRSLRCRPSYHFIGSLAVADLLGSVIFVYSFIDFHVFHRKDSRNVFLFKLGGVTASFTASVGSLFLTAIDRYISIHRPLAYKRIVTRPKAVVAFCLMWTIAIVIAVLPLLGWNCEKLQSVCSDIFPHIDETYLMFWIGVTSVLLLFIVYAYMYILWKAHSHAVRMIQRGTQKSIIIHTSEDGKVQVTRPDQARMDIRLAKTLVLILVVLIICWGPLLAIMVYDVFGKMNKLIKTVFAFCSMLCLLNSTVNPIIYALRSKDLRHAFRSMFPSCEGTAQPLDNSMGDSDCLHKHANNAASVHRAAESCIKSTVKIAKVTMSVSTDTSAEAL
recombinant human CB1 receptor, sequence (P21554 whole entry): as above

For the molecule `CC(=O)c1ccc(-c2cc3c(nc2-c2ccccc2Cl)nc(C(C)(C)C)n2c(=O)[nH]nc32)cc1` [Example 9, 9-(4-Acetylphenyl)-5-tert-butyl-8-(2-chlorophenyl)pyrido[3,2-e][1,2,4]triazolo[4,3-c]pyrimidin-3(2H)-one], in assay [1], the IC50 (as a rule, the concentration needed to halve the response being measured) was found to be 10 nM. Moreover, in assay [2], the EC50 (usually the midpoint of the concentration-response curve) was below 100 nM and the “functional mode at CB1 receptor in the CB1 functional activity assay” value (“functional mode at CB1 receptor” for short) is reported as “functional inverse agonists”.

Take `CC(C)(C)c1nc2nc(-c3ccc(C#N)cc3Cl)c(-c3ccc(Cl)cc3)cc2c2n[nH]c(=O)n12` [Example 28, 4-[5-Tert-butyl-9-(4-chlorophenyl)-3-oxo-2,3-dihydropyrido[3,2-e][1,2,4]triazolo[4,3-c]pyrimidin-8-yl]-3-chlorobenzonitrile]: in assay [1], the IC50 was 1 nM. In addition, in assay [2], the EC50 is below 100 nM and the “functional mode at CB1 receptor” value is reported as “functional inverse agonists”.

With `CC(C)(C)c1nc2nc(-c3ccccc3Cl)c(-c3ccc(Cl)cc3)cc2c2n[nH]c(=O)n12` [Example 1, 5-Tert-butyl-8-(2-chlorophenyl)-9-(4-chlorophenyl)pyrido[3,2-e][1,2,4]triazolo[4,3-c]pyrimidin-3(2H)-one], in assay [1], the concentration for half-maximal inhibition (IC50) was determined as 2 nM. In assay [2], the EC50 is below 100 nM and the “functional mode at CB1 receptor” value was “functional inverse agonists”.

Turning to `CC(C)(C)c1nc2nc(-c3ccccc3Cl)c(-c3ccc(-c4ncon4)cc3)cc2c2n[nH]c(=O)n12` [Example 32, 5-Tert-butyl-8-(2-chlorophenyl)-9-[4-(1,2,4-oxadiazol-3-yl)phenyl]pyrido[3,2-e][1,2,4]-triazolo[4,3-c]pyrimidin-3(2H)-one], in assay [1], the IC50 was determined as 11 nM. In assay [2], the EC50 is below 100 nM and the “functional mode at CB1 receptor” value is “functional inverse agonists”.

Take `CC(C)(C)c1nc2nc(-c3ccccc3Cl)c(-c3ccc(C#N)cc3)cc2c2n[nH]c(=O)n12` [Example 16, 4-[5-Tert-butyl-8-(2-chlorophenyl)-3-oxo-2,3-dihydropyrido[3,2-e][1,2,4]triazolo[4,3-c]pyrimidin-9-yl]benzonitrile]: the IC50 in assay [1] was found to be 6 nM. In assay [2], the EC50 was below 100 nM and the “functional mode at CB1 receptor” value is on record as “functional inverse agonists”.

As to `CC(C)(C)c1nc2nc(-c3ccccc3-c3ccc(F)cc3)c(-c3ccc(F)cc3)cc2c2n[nH]c(=O)n12` [Example 27, 5-Tert-butyl-8-(4′-fluorobiphenyl-2-yl)-9-(4-fluorophenyl)pyrido[3,2-e][1,2,4]triazolo[4,3-c]pyrimidin-3(2H)-one], the IC50 in assay [1] turned out to be 6 nM. Further, in assay [2], the EC50 is below 100 nM and the “functional mode at CB1 receptor” value is recorded as “functional inverse agonists”.

As for `CC(C)(C)c1nc2nc(-c3ccc(C#N)cc3C#N)c(-c3ccc(Cl)cc3)cc2c2n[nH]c(=O)n12` [Example 31, 4-[5-Tert-butyl-9-(4-chlorophenyl)-3-oxo-2,3-dihydropyrido[3,2-e][1,2,4]triazolo[4,3-c]pyrimidin-8-yl]isophthalonitrile], the IC50 in assay [1] came out at 4 nM. In assay [2], the half-maximal effective concentration (EC50) was below 100 nM and the “functional mode at CB1 receptor” value is “functional inverse agonists”.
